In ChEMBL document CHEMBL4811216, “Chemotherapy for human schistosomiasis: how far have we come? What's new? Where do we go from here?” (RSC Med Chem, 2020):
pEC50, pIC50: −log10 of the molar value.

What was measured:
[1] = system: Schistosoma mansoni; experiment: Schistosomicidal-activity against Schistosoma mansoni Puerto-Rican schistosomula incubated for 7 days by trypan blue dye-exclusion test; format: functional, organism-based; details: 168 h
[2] = system: Schistosoma mansoni; experiment: Antischistosomal activity against Schistosoma mansoni Puerto-Rican infected in BALB/c mouse assessed as worm burden reduction at 300 mg/kg, po BID administered for 2 consecutive days by light microscopic method relative to control; format: functional; set-up: scale not given: the % may be the effect or the level left
[3] = system: Schistosoma japonicum; experiment: Antischistosomal activity against Schistosoma japonicum at 10 uM incubated for 72 hrs by inverted microscopic method relative to control; format: functional
[4] = system: Schistosoma mansoni; experiment: Antischistosomal activity against Schistosoma mansoni LE assessed as worm mortality at 20 uM incubated for 72 hrs by microscopic method relative to control; format: functional
[5] = system: Schistosoma mansoni; experiment: Antischistosomal activity against Schistosoma mansoni BH infected in Balb/c mouse assessed as reduction in worm burden at 400 mg/kg, po measurement after 2 weeks; format: functional; set-up: scale not given: the % may be the effect or the level left
[6] = system: Schistosoma japonicum; experiment: Antischistosomal activity against Schistosoma japonicum assessed as worm mortality at 10 ug/ml incubated for 72 hrs by microscopic method relative to control; format: functional; details: dose 10 µg/ml
[7] = system: Schistosoma japonicum; experiment: Schistosomicidal-activity against adult Schistosoma japonicum at 10 uM incubated for 72 hrs by inverted microscopic method relative to control; format: functional
[8] = system: Schistosoma japonicum; experiment: Antischistosomal activity against Schistosoma japonicum infected in ICR mouse assessed as total worm reduction at 250 mg/kg, po administered as single dose relative to control; format: functional; set-up: scale not given: the % may be the effect or the level left
[9] = target: T1, Histone deacetylase 8 (Homo sapiens, UniProt Q9BY41); experiment: Inhibition of human HDAC8 using Fluor de Lys as substrate by fluorimetric method
T1 sequence (Q9BY41 whole entry): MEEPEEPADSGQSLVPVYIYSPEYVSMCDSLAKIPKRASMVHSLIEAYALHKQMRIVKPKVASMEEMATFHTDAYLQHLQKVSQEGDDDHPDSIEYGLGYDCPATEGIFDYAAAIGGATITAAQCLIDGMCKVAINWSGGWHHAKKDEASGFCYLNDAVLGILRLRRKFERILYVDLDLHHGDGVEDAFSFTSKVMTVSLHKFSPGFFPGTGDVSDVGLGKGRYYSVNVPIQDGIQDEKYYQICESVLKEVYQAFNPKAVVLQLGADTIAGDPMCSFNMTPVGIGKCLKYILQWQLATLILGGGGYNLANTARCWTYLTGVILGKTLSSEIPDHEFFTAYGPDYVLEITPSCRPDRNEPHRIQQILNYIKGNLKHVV

[10] = target: T2, HDAC1 (histone deacetylase 1) (Homo sapiens, UniProt Q13547); experiment: Inhibition of human HDAC1 at 200 uM using Z-Lys(Ac)-AMC as substrate by fluorimetric method relative to control; details: HDAC1 enzyme, probe Z-Lys(Ac)-AMC
T2 sequence (Q13547 whole entry): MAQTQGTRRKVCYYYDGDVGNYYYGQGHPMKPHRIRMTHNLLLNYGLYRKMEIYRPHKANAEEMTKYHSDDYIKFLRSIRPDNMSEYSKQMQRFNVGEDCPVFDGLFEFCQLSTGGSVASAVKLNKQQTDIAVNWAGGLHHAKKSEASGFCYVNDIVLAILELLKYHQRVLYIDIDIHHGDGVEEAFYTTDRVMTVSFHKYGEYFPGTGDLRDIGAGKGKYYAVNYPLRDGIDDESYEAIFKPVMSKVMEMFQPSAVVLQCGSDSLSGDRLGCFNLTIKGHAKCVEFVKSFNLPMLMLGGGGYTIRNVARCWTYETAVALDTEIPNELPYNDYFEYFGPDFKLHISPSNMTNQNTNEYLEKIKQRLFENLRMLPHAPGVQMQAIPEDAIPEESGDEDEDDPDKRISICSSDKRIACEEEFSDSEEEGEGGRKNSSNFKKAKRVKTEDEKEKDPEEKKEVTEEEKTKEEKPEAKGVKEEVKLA

[11] = target: T3, Protein deacetylase HDAC6 (Homo sapiens, UniProt Q9UBN7); experiment: Inhibition of human HDAC6 using Z-Lys(Ac)-AMC as substrate by fluorimetric method
T3 sequence (Q9UBN7 whole entry): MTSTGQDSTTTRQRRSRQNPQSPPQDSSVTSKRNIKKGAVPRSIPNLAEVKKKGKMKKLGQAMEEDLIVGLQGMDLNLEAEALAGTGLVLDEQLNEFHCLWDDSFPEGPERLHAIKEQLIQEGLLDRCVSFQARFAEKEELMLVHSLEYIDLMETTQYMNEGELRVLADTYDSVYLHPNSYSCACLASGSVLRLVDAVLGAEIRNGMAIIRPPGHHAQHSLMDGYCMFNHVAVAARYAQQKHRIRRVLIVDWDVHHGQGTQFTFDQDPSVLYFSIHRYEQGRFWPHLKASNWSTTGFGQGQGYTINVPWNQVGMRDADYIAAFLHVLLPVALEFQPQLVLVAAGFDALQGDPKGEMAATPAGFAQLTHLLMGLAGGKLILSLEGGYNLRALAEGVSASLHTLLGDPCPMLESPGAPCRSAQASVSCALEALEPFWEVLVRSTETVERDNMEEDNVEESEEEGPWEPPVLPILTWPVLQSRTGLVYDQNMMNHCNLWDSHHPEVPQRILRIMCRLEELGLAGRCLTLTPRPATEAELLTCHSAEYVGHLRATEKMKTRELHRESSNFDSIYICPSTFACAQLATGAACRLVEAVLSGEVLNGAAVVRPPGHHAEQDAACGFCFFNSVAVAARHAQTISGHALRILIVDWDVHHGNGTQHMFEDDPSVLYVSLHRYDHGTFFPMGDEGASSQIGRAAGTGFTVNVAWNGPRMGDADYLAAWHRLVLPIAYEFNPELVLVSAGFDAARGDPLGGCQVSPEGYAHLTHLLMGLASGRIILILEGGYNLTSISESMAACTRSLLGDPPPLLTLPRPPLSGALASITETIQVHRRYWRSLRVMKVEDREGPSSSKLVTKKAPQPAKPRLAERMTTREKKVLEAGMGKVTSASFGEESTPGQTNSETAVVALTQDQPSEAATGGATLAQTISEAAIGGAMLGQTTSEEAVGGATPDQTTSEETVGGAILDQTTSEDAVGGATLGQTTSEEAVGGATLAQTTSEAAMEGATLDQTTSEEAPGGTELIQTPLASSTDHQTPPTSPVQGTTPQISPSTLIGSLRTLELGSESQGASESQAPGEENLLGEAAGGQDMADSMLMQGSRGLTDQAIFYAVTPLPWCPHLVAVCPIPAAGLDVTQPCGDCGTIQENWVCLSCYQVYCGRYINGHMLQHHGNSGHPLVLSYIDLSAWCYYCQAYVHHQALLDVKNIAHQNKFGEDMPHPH

[12] = target: T4, Histone deacetylase 8 (Schistosoma mansoni, UniProt A5H660); experiment: Inhibition of Schistosoma mansoni HDAC8 using fluorogenic substrate by fluorescence method
T4 sequence (A5H660 whole entry): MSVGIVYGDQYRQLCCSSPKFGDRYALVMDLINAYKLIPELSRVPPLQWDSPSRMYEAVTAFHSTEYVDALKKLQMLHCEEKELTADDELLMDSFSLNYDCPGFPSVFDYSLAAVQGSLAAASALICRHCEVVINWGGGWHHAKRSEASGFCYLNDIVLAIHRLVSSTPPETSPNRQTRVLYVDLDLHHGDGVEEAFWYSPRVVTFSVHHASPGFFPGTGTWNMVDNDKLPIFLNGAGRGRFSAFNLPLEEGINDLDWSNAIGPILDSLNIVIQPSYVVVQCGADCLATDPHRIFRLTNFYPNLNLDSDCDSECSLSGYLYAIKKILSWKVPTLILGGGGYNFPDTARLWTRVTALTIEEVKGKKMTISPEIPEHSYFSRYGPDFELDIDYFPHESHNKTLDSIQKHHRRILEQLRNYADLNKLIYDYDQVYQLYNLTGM

[13] = target: T2, HDAC1 (histone deacetylase 1); experiment: Inhibition of human HDAC1 using Z-Lys(Ac)-AMC as substrate at 1 uM by fluorimetric method relative to control; details: HDAC1 enzyme, probe Z-Lys(Ac)-AMC
[14] = target: T5, Cathepsin B1 isotype 1 (Schistosoma mansoni) (UniProt Q8MNY2); experiment: Inhibition of Schistosoma mansoni cathepsin B1 using Z-Phe-Arg-aminomethylcoumarin as substrate at 100 uM by fluorescence method relative to control
T5 sequence (whole entry): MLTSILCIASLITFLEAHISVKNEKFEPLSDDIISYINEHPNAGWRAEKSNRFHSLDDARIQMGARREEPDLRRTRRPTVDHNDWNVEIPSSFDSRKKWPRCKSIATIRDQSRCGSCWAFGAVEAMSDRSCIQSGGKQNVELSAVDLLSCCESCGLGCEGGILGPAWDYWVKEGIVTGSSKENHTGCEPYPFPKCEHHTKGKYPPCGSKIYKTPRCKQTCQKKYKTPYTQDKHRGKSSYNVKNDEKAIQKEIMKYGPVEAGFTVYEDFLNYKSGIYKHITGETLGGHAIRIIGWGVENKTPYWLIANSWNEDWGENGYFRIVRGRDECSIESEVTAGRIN

[15] = system: Schistosoma mansoni; experiment: Schistosomicidal-activity against Schistosoma mansoni LE assessed as seperation of worm couples at 25 uM measured within 120 hrs relative to control; format: functional
[16] = system: Schistosoma mansoni; experiment: Schistosomicidal-activity against adult Schistosoma mansoni incubated overnight followed by replacement of medium and measured on day 5 by stereomicroscopy; format: functional, organism-based; details: 120 h

## C1CCCCCC2(CCCCC1)OOCCCOO2
[1]
  pEC50: 7.80
[2]
  Activity: 63%

## CCCCCCCCCCOc1cc2c(O)c(C(=O)NCCN(CC)CC)cnc2cc1OCC
[3]
  Activity: 100%

## CN(C)c1ccc(/C=C2\NC(=O)N(Cc3c(F)cccc3Cl)C2=S)cc1
[4]
  Activity: 100%

## COc1cc(O)ccc1C(=O)/C=C/c1ccccc1
[5]
  Activity: 31.8%

## OC(CN1CCCC1)Cn1c2ccc(Cl)cc2c2cc(Cl)ccc21 (configuration not stated)
[6]
  Activity: 100%

## O=C(C1CCCCC1)N1CC(=O)N2CCc3ccccc3C2C1 (configuration not stated) [PRAZIQUANTEL]
[7]
  Activity: 37.5%
[8]
  Activity: 62.4%

## CN1CCN(NC(=O)c2cccc(C(=O)NO)c2)CC1
[9]
  pIC50: 5.88
[10]
  inhibition at 200 µM: 15.3%
[11]
  pIC50: 5.15
[12]
  pIC50: 6.12
[13]
  inhibition at 1 µM: < 10%

## O=C(CCl)N1CC(=O)N2CCc3sccc3C2C1 (configuration not stated)
[7]
  Activity: 100%

## O=C(c1ccc(CCl)c([N+](=O)[O-])c1)N1CCOCC1
[14]
  inhibition: < 27%

## COc1cc([C@@H]2OC(=O)[C@@H]3[C@H]2C(=O)O[C@H]3c2cc(OC)c(O)c(OC)c2)cc(OC)c1O
[15]
  Activity: 100%

## O=C(C1CCCCC1)N1CC(=O)N2CCc3sccc3C2C1 (configuration not stated)
[16]
  pEC50: 6.05
